Laboratory results published in US20240109918A1, “HETEROCYCLIC COMPOUNDS AND USES THEREOF” (Kumquat Biosciences Inc., priority 2022, published 2024).

What was measured:
KRASG12D = target: T1, KRASG12D (Homo sapiens, UniProt P01116, G12D); test: Bio-Biochem-PPI-HTRF Ras-SOS1 interaction assay (KRAS G12D); type: biochemical; settings: 5 nM
T1 construct: made in house; host or cells: E. coli BL21 (DE3)
Outline: (§1)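 GST-tagged K-Ras (wt or G12D) with anti-GST-Eu(K) donor was mixed with His-hSOS1 and anti-6His-XL665 acceptor in HEPES pH 7.4/NaCl/DTT/BSA/Igepal buffer, with compound in duplicate from 10 μM down to 0.01 μM. After about 10 min or longer, HTRF 665/620 nm ratio gave IC50.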

KRASwt = target: T2, KRASwt (Homo sapiens, UniProt P01116); test: Bio-Biochem-PPI-HTRF Ras-SOS1 interaction assay (KRAS wt); type: biochemical; settings: 5 nM
T2 construct: made in house; host or cells: E. coli BL21 (DE3)
Outline: as §1

T1 sequence (P01116 1-188 isoform P01116-2 G12D): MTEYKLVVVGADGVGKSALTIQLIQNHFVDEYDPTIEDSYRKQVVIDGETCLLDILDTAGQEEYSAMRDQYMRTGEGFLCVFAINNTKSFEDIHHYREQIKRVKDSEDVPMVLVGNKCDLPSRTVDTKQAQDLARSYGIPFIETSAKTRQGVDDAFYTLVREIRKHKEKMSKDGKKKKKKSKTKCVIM
T2 sequence (P01116 1-188 isoform P01116-2): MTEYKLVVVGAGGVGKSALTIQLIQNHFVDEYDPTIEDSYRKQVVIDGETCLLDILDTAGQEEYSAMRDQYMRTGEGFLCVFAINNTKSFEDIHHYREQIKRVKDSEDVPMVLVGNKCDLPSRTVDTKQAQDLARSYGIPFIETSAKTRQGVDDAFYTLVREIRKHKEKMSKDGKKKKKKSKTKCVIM

Q: How did the IC50 (KRASG12D) turn out when `N#Cc1c(N)sc2c(F)ccc(-c3c(Cl)cc4c(N5CCCCC6(CN(C(=O)C(C7CC7)N7CCOCC7)C6)C5)nc(OC[C@@]56CCCN5C[C@H](F)C6)nc4c3F)c12` (stereo partly drawn) [compound 223, 2-amino-4-(6-chloro-4-(2-(2-cyclopropyl-2-morpholinoacetyl)-2,6-diazaspiro[3.6]decan-6-yl)-8-fluoro-2-(((2R,7aS)-2-fluorotetrahydro-1H-pyrrolizin-7a(5H)-yl)methoxy)quinazolin-7-yl)-7-fluorobenzo[b]thiophene-3-carbonitrile] was run?
A: Its IC50 is < 5 µM.

Q: And the IC50 (KRASwt)?
A: Its IC50 is < 5 µM.

Q: How did the IC50 (KRASG12D) turn out when `N#Cc1c(N)sc2c(F)ccc(-c3c(Cl)cc4c(N5CCCCC6(CN(C(=O)C7CCC7(F)F)C6)C5)nc(OC[C@@]56CCCN5C[C@H](F)C6)nc4c3F)c12` (stereo partly drawn) [compound 210, 2-amino-4-(6-chloro-4-(2-(2,2-difluorocyclobutane-1-carbonyl)-2,6-diazaspiro[3.6]decan-6-yl)-8-fluoro-2-(((2R,7aS)-2-fluorotetrahydro-1H-pyrrolizin-7a(5H)-yl)methoxy)quinazolin-7-yl)-7-fluorobenzo[b]thiophene-3-carbonitrile] was run?
A: Its IC50 is < 5 µM.

Q: And the IC50 (KRASwt)?
A: The IC50 was < 5 µM.

Q: What does the source list for `C[C@H](Oc1nc(N2CCCC3(CN(C(=O)[C@@H]4C[C@H]4F)C3)C2)c2cc(Cl)c(-c3ccc(F)c4sc(N)c(C#N)c34)c(F)c2n1)[C@@H]1CCCN1C` [compound 126, 2-amino-4-(6-chloro-8-fluoro-4-(2-((1S,2R)-2-fluorocyclopropane-1-carbonyl)-2,6-diazaspiro[3.5]nonan-6-yl)-2-((S)-1-((S)-1-methylpyrrolidin-2-yl)ethoxy)quinazolin-7-yl)-7-fluorobenzo[b] thiophene-3-carbonitrile]?
A: IC50 (KRASG12D): < 5 µM; IC50 (KRASwt): < 5 µM

Q: With `CC1(C(=O)N2CC3(CCCCN(c4nc(OC[C@@]56CCCN5C[C@H](F)C6)nc5c(F)c(-c6ccc(F)c7sc(N)c(C#N)c67)c(Cl)cc45)C3)C2)CC1(F)F` (stereo partly drawn) [compound 277, 2-amino-4-(6-chloro-4-(2-(2,2-difluoro-1-methylcyclopropane-1-carbonyl)-2,6-diazaspiro[3.6]decan-6-yl)-8-fluoro-2-(((2R,7aS)-2-fluorotetrahydro-1H-pyrrolizin-7a(5H)-yl)methoxy)quinazolin-7-yl)-7-fluorobenzo[b]thiophene-3-carbonitrile] as the compound, how does the IC50 (KRASG12D) read?
A: The IC50 was < 5 µM.

Q: What about the IC50 (KRASwt) of the same compound?
A: The IC50 was < 5 µM.

Q: `N#Cc1c(N)sc2c(F)ccc(-c3c(Cl)cc4c(N5CCOC6(CN(C(=O)[C@H]7CC7(F)F)C6)C5)nc(OC[C@@]56CCCN5C[C@H](F)C6)nc4c3F)c12` (single isomer, unassigned) [compound 176] was tested. Which IC50 (KRASG12D) did it give?
A: The IC50 was < 5 µM.

Q: What about the IC50 (KRASwt) of the same compound?
A: The IC50 was < 5 µM.

Q: Which results are given for `N#Cc1c(N)sc2c(F)ccc(-c3c(Cl)cc4c(N5CCCCC6(CN(C(=O)COC(F)(F)F)C6)C5)nc(OC[C@@]56CCCN5C[C@H](F)C6)nc4c3F)c12` [compound 268, 2-amino-4-(6-chloro-8-fluoro-2-(((2R,7aS)-2-fluorotetrahydro-1H-pyrrolizin-7a(5H)-yl)methoxy)-4-(2-(2-(trifluoromethoxy)acetyl)-2,6-diazaspiro[3.6]decan-6-yl)quinazolin-7-yl)-7-fluorobenzo[b]thiophene-3-carbonitrile]?
A: IC50 (KRASG12D): < 5 µM; IC50 (KRASwt): < 5 µM

Q: Which IC50 (KRASG12D) does the source give for `N#Cc1c(N)sc2c(F)ccc(-c3c(Cl)cc4c(N5CCOC6(CN(C(=O)c7cn[nH]n7)C6)C5)nc(OC[C@@]56CCCN5C[C@H](F)C6)nc4c3F)c12` [compound 163, 4-(4-(2-(2H-1,2,3-triazole-4-carbonyl)-5-oxa-2,8-diazaspiro[3.5]nonan-8-yl)-6-chloro-8-fluoro-2-(((2R,7aS)-2-fluorotetrahydro-1H-pyrrolizin-7a(5H)-yl)methoxy)quinazolin-7-yl)-2-amino-7-fluorobenzo[b]thiophene-3-carbonitrile] here?
A: The IC50 was < 5 µM.

Q: What about the IC50 (KRASwt) of the same compound?
A: The IC50 was < 5 µM.

Q: Which results are given for `N#Cc1c(N)sc2c(F)ccc(-c3c(Cl)cc4c(N5CCCCC6(CN(C(=O)[C@@H]7C[C@H]7C#N)C6)C5)nc(OC[C@@]56CCCN5C[C@H](F)C6)nc4c3F)c12` [compound 263, 2-amino-4-(6-chloro-4-(2-((1R,2R)-2-cyanocyclopropane-1-carbonyl)-2,6-diazaspiro[3.6]decan-6-yl)-8-fluoro-2-(((2R,7aS)-2-fluorotetrahydro-1H-pyrrolizin-7a(5H)-yl)methoxy)quinazolin-7-yl)-7-fluorobenzo[b]thiophene-3-carbonitrile]?
A: IC50 (KRASG12D): < 5 µM; IC50 (KRASwt): < 5 µM

Q: Which results are given for `N#Cc1c(N)sc2c(F)ccc(-c3c(Cl)cc4c(N5CCOCC6(CN(C(=O)[C@@H]7CC7(F)F)C6)C5)nc(OC[C@@]56CCCN5C[C@H](F)C6)nc4c3F)c12` [compound 239, 2-amino-4-(6-chloro-4-(2-((S)-2,2-difluorocyclopropane-1-carbonyl)-6-oxa-2,9-diazaspiro[3.6]decan-9-yl)-8-fluoro-2-(((2R,7aS)-2-fluorotetrahydro-1H-pyrrolizin-7a(5H)-yl)methoxy)quinazolin-7-yl)-7-fluorobenzo[b]thiophene-3-carbonitrile]?
A: IC50 (KRASG12D): < 5 µM; IC50 (KRASwt): < 5 µM

Q: For `Nc1nc2c(-c3c(Cl)cc4c(N5CCNC6(CNC6)C5)nc(OC[C@@]56CCCN5C[C@H](F)C6)nc4c3F)ccc(F)c2s1` [compound 116, 4-(6-chloro-8-fluoro-2-(((2R,7aS)-2-fluorotetrahydro-1H-pyrrolizin-7a(5H)-yl)methoxy)-4-(2,5,8-triazaspiro[3.5]nonan-8-yl)quinazolin-7-yl)-7-fluorobenzo[d]thiazol-2-amine], which IC50 (KRASG12D) is on record?
A: Its IC50 is < 5 µM.

Q: And the IC50 (KRASwt)?
A: The IC50 was < 5 µM.

Q: Which results are given for `COC1CN(C(=O)N2CC3(CCCN(c4nc(O[C@@H](C)[C@@H]5CCCN5C)nc5c(F)c(-c6ccc(F)c7sc(N)c(C#N)c67)c(Cl)cc45)C3)C2)C1` [compound 205, 2-amino-4-(6-chloro-8-fluoro-4-(2-(3-methoxyazetidine-1-carbonyl)-2,6-diazaspiro[3.5]nonan-6-yl)-2-((S)-1-((S)-1-methylpyrrolidin-2-yl)ethoxy)quinazolin-7-yl)-7-fluorobenzo[b] thiophene-3-carbonitrile]?
A: IC50 (KRASG12D): < 5 µM; IC50 (KRASwt): < 5 µM

Q: `COCC(=O)N1CC2(CCCN(c3nc(O[C@@H](C)[C@@H]4CCCN4C)nc4c(F)c(-c5ccc(F)c6sc(N)c(C#N)c56)c(Cl)cc34)C2)C1` [compound 138, 2-amino-4-(6-chloro-8-fluoro-4-(2-(2-methoxyacetyl)-2,6-diazaspiro[3.5]nonan-6-yl)-2-((S)-1-((S)-1-methylpyrrolidin-2-yl)ethoxy)quinazolin-7-yl)-7-fluorobenzo[b]thiophene-3-carbonitrile] was tested. Which IC50 (KRASG12D) did it give?
A: The IC50 was < 5 µM.

Q: What about the IC50 (KRASwt) of the same compound?
A: The IC50 was < 5 µM.

Q: Which IC50 (KRASG12D) does the source give for `N#CN1CC2(CCCN(c3nc(OC[C@@]45CCCN4C[C@H](F)C5)nc4c(F)c(-c5ccc(F)c6sc(N)nc56)c(Cl)cc34)C2)C1` [compound 177, 6-(7-(2-amino-7-fluorobenzo [d]thiazol-4-yl)-6-chloro-8-fluoro-2-(((2R,7aS)-2-fluorotetrahydro-1H-pyrrolizin-7a(5H)-yl)methoxy)quinazolin-4-yl)-2,6-diazaspiro[3.5]nonane-2-carbonitrile] here?
A: Its IC50 is < 5 µM.

Q: What about the IC50 (KRASwt) of the same compound?
A: Its IC50 is < 5 µM.

Q: `N#Cc1c(N)sc2c(F)ccc(-c3c(Cl)cc4c(N5CCCCC6(CN(C(=O)C7(F)CC7)C6)C5)nc(OC[C@@]56CCCN5C[C@H](F)C6)nc4c3F)c12` [compound 253, 2-amino-4-(6-chloro-8-fluoro-4-(2-(1-fluorocyclopropane-1-carbonyl)-2,6-diazaspiro[3.6]decan-6-yl)-2-(((2R,7aS)-2-fluorotetrahydro-1H-pyrrolizin-7a(5H)-yl)methoxy)quinazolin-7-yl)-7-fluorobenzo[b]thiophene-3-carbonitrile] was tested. Which IC50 (KRASG12D) did it give?
A: Its IC50 is < 5 µM.

Q: And the IC50 (KRASwt)?
A: The IC50 was < 5 µM.

Q: How did the IC50 (KRASG12D) turn out when `N#Cc1c(N)sc2c(F)ccc(-c3c(Cl)cc4c(N5CCCCC6(CN(C(=O)C7CCOCC7)C6)C5)nc(OC[C@@]56CCCN5C[C@H](F)C6)nc4c3F)c12` [compound 300, 2-amino-4-(6-chloro-8-fluoro-2-(((2R,7aS)-2-fluorotetrahydro-1H-pyrrolizin-7a(5H)-yl)methoxy)-4-(2-(tetrahydro-2H-pyran-4-carbonyl)-2,6-diazaspiro[3.6]decan-6-yl)quinazolin-7-yl)-7-fluorobenzo[b]thiophene-3-carbonitrile] was run?
A: The IC50 was < 5 µM.

Q: And the IC50 (KRASwt)?
A: Its IC50 is < 5 µM.

Q: For `N#Cc1c(N)sc2c(F)ccc(-c3c(Cl)cc4c(N5CCCCC6(CN(C(=O)[C@H]7C[C@H]7F)C6)C5)nc(OC[C@@]56CCCN5C[C@H](F)C6)nc4c3F)c12` [compound 193, 2-amino-4-(6-chloro-8-fluoro-4-(2-((1R,2R)-2-fluorocyclopropane-1-carbonyl)-2,6-diazaspiro[3.6]decan-6-yl)-2-(((2R,7aS)-2-fluorotetrahydro-1H-pyrrolizin-7a(5H)-yl)methoxy)quinazolin-7-yl)-7-fluorobenzo[b]thiophene-3-carbonitrile], which IC50 (KRASG12D) is on record?
A: Its IC50 is < 5 µM.

Q: And the IC50 (KRASwt)?
A: The IC50 was < 5 µM.

Q: Which IC50 (KRASG12D) does the source give for `N#Cc1c(N)sc2c(F)ccc(-c3c(Cl)cc4c(N5CCCCC6(CN(C(=O)[C@]78COC[C@H]7C8(F)F)C6)C5)nc(OC[C@@]56CCCN5C[C@H](F)C6)nc4c3F)c12` [compound 240, 2-amino-4-(6-chloro-4-(2-((1R,5S)-6,6-difluoro-3-oxabicyclo[3.1.0]hexane-1-carbonyl)-2,6-diazaspiro[3.6]decan-6-yl)-8-fluoro-2-(((2R,7aS)-2-fluorotetrahydro-1H-pyrrolizin-7a(5H)-yl)methoxy)quinazolin-7-yl)-7-fluorobenzo[b]thiophene-3-carbonitrile] here?
A: The IC50 was < 5 µM.

Q: What about the IC50 (KRASwt) of the same compound?
A: The IC50 was < 5 µM.

Q: Which results are given for `C[C@@H](O)C(=O)N1CC2(CCCCN(c3nc(OC[C@@]45CCCN4C[C@H](F)C5)nc4c(F)c(-c5ccc(F)c6sc(N)c(C#N)c56)c(Cl)cc34)C2)C1` [compound 243, 2-amino-4-(6-chloro-8-fluoro-2-(((2R,7aS)-2-fluorotetrahydro-1H-pyrrolizin-7a(5H)-yl)methoxy)-4-(2-((R)-2-hydroxypropanoyl)-2,6-diazaspiro[3.6]decan-6-yl)quinazolin-7-yl)-7-fluorobenzo[b] thiophene-3-carbonitrile]?
A: IC50 (KRASG12D): < 5 µM; IC50 (KRASwt): < 5 µM
